From patent US20100183684A1, “Oral vaccination” (Bio Life Science, priority 2002, published 2010)
Structures can show the parent of a compound that is named as a salt.

Test system: caviar extract
Assay: Antibody induction against orally fed caviar extract in mice, measured by ELISA
Type: in vivo
Settings: Balb/c mice, gastric acid reducing agent with 2 mg caviar protein extract orally, fed simultaneously or with a time delay, not against daily diet; for induction of IgE antibodies against caviar extract: ELISA OD 405/450 nm
Protocol: Four groups (A to D) with five Balb/c mice each were treated in the following way: • Group A: Oral administration of Zantac (ULSAL®, active agent: 20 microg ranitidine per mouse, single dose per mouse one hour before feeding […] with antigen) and antigen (2 mg caviar protein extract per mouse), • Group B: Oral administration of a mixture of Ulcogant (active agent: 2 mg sucralfate per mouse) and antigen (2 mg caviar protein extract per mouse), • Group C: Comparative example with intraperitoneal administration of caviar antigen (2 mg) and aluminum hydroxide as an adjuvant, • Group D: Comparative example with oral administration of antigen (2 mg).
The antigen used was caviar extract. As a reference regarding the caviar extract used, the publication by Untersmayr E, Schöll I, Förster-Waldl E, Walter F, Riemer A, Boltz-Nitulescu G, Scheiner O, Jensen-Jarolim E. J Allergy and Immun. 2002; 109 (6): 1034-5 is cited. The antigen contained therein has a molecular weight of 118 kDa.
The obtained results are rendered in FIG. 1. […] Groups A and B were given the antigen in conjunction with a gastric acid reducing agent orally according to the invention, while for comparison purposes group C was immunized according to a standard scheme for IgE induction, and group D was given the antigen orally without gastric acid reducing agent.

| Compound | induction of IgE antibodies against caviar extract | induction of IgG antibodies against caviar extract |
| --- | --- | --- |
| CNC(=C[N+](=O)[O-])NCCSCc1ccc(CN(C)C)o1 [Zantac, ranitidine hydrochloride] | lasting induction | lasting induction |
| aluminum sucrose hydrogen sulfate [Ulcogant] | lasting induction | lasting induction |
